Measured values: the supplement of paper PMC10307832

Tests used:
Assay in all cases: relative viability (nuclei count vs DMSO), 5 days (fraction); higher = more cells survive
[1] = compound: CN(C)CC1=CC(=CC=C1)N=C(C2=CC=CC=C2)C3=C(NC4=C3C=CC(=C4)C(=O)N(C)C)O + COc1cccc2cc(-c3nc([C@H]4CC[C@H](C(=O)O)CC4)n4ncnc(N)c34)[nH]c12 [OSI-027] (partner 0.5 µM)
Summary of the method: (§1)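 For relative viability, nuclei counts in treated wells were divided by those in vehicle wells. Lung cancer cell lines had been pin-tool dosed in 1536-well plates the day after seeding and cultured for 5 days, then fixed and stained in one step (final 0.05% Triton X-100, 1% formaldehyde, 1 ug/ml Hoechst) and imaged at 4×. Doses were one drug alone or a fixed anchor-drug dose plus five library-drug doses (not always all listed) in √10 steps, and values are duplicate-plate medians.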

[2] = compound: CN(C)CC1=CC(=CC=C1)N=C(C2=CC=CC=C2)C3=C(NC4=C3C=CC(=C4)C(=O)N(C)C)O + C[C@]1(O)C[C@@H](c2nc(-c3ccc4ccc(-c5ccccc5)nc4c3)c3c(N)nccn32)C1 [Linsitinib] (partner 1 µM)
Summary of the method: as §1

[3] = compound: CN(C)CC1=CC(=CC=C1)N=C(C2=CC=CC=C2)C3=C(NC4=C3C=CC(=C4)C(=O)N(C)C)O + CS(=O)(=O)CCNCc1ccc(-c2ccc3ncnc(Nc4ccc(OCc5cccc(F)c5)c(Cl)c4)c3c2)o1 [Lapatinib] (partner 2 µM)
Summary of the method: as §1

[4] = compound: CN(C)CC1=CC(=CC=C1)N=C(C2=CC=CC=C2)C3=C(NC4=C3C=CC(=C4)C(=O)N(C)C)O + CCNC(=O)c1noc(-c2cc(C(C)C)c(O)cc2O)c1-c1ccc(CN2CCOCC2)cc1 [Luminespib] (partner 0.01 µM)
Summary of the method: as §1

| Cell Line | relative viability ([1]; first compound 0.08 µM) | relative viability ([1]; first compound 0.253 µM) | relative viability ([1]; first compound 0.8 µM) | relative viability ([1]; first compound 2.53 µM) | relative viability ([1]; first compound 8 µM) | relative viability ([2]; first compound 0.08 µM) | relative viability ([2]; first compound 0.253 µM) | relative viability ([2]; first compound 0.8 µM) | relative viability ([2]; first compound 2.53 µM) | relative viability ([2]; first compound 8 µM) | relative viability ([3]; first compound 0.08 µM) | relative viability ([3]; first compound 0.253 µM) | relative viability ([3]; first compound 0.8 µM) | relative viability ([3]; first compound 2.53 µM) | relative viability ([3]; first compound 8 µM) | relative viability ([4]; first compound 0.08 µM) | relative viability ([4]; first compound 0.253 µM) | relative viability ([4]; first compound 0.8 µM) | relative viability ([4]; first compound 2.53 µM) | relative viability ([4]; first compound 8 µM) |
| --- | --- | --- | --- | --- | --- | --- | --- | --- | --- | --- | --- | --- | --- | --- | --- | --- | --- | --- | --- | --- |
| HARA | 0.525 | 0.553 | 0.397 | 0.482 | 0.319 | 0.965 | 1.04 | 0.865 | 0.921 | 0.715 | 0.794 | 0.842 | 0.686 | 0.803 | 0.744 | 0.867 | 0.742 | 0.763 | 0.747 | 0.656 |
| H3255 | 0.649 | 0.592 | 0.698 | 0.682 | 0.632 | 0.881 | 0.959 | 0.924 | 0.954 | 1.03 | 0.25 | 0.31 | 0.235 | 0.222 | 0.292 | 0.899 | 0.894 | 0.751 | 0.836 | 0.998 |
| SK-LU-1 | 0.373 | 0.366 | 0.429 | 0.346 | 0.244 | 1.05 | 1.2 | 1.27 | 1.17 | 0.77 | 0.814 | 0.878 | 0.831 | 0.747 | 0.836 | 0.226 | 0.191 | 0.21 | 0.188 | 0.225 |
| NCI-H1793 | 0.29 | 0.299 | – | 0.329 | 0.196 | 0.96 | 0.84 | 0.617 | 1.03 | 0.806 | 0.79 | 0.665 | 0.569 | 0.823 | 0.891 | 0.19 | 0.249 | – | 0.165 | 0.113 |
| EMC-BAC-2 | 0.369 | 0.416 | 0.392 | 0.356 | 0.391 | 0.884 | 0.797 | 0.778 | 0.787 | 0.717 | 0.927 | 0.914 | 0.953 | 0.898 | 0.878 | 1.2 | 1.28 | 1.15 | 1.16 | 1.11 |
| NCI-H2405 | 0.629 | 0.653 | 0.618 | 0.57 | 0.544 | 1.01 | 0.845 | 1.03 | 0.867 | 0.76 | 1.06 | 1.09 | 1.15 | 0.999 | 0.963 | 0.992 | 0.652 | 0.681 | 0.614 | 0.552 |
| EPLC-272H | 0.312 | 0.37 | 0.264 | 0.258 | 0.283 | 1.21 | 1.11 | 0.937 | 1.15 | 0.934 | 0.927 | 0.996 | 0.845 | 0.955 | 0.989 | 0.309 | 0.363 | 0.239 | 0.308 | 0.211 |
| LXF-289 | 0.769 | 0.731 | 0.707 | 0.713 | 0.639 | 0.935 | 0.931 | 0.955 | 0.857 | 0.915 | 0.888 | 0.887 | 0.893 | 0.86 | 0.815 | 0.694 | 0.675 | 0.6 | 0.652 | 0.623 |
| NCI-H1299 | – | – | – | – | – | 1.05 | 0.969 | 1.02 | 0.946 | 0.972 | 0.957 | 0.914 | 0.977 | 0.875 | 0.915 | – | – | – | – | – |
| NCI-H1395 | 0.647 | 0.813 | 0.711 | 0.62 | 0.628 | 1.08 | 0.838 | 1.08 | 0.788 | 0.995 | 0.948 | 1.14 | 1.2 | 0.892 | 0.943 | 0.594 | 0.778 | 0.672 | 0.653 | 0.86 |
| NCI-H596 | 0.738 | 1.03 | 0.639 | 0.744 | 0.659 | 1.11 | 1.07 | 1.06 | 1 | 1.11 | 1.12 | 1.32 | 0.971 | 1.05 | 1.13 | 0.974 | 1.24 | 0.993 | 1.14 | 0.551 |
| 201T | 0.737 | 0.736 | 0.762 | 0.586 | 0.584 | 1.07 | 1.06 | 0.937 | 1.04 | 0.927 | 0.95 | 1.01 | 1.01 | 1.02 | 0.981 | 1.06 | 0.993 | 1.01 | 1.05 | 0.802 |
| NCI-H1944 | 0.447 | 0.491 | 0.4 | 0.355 | 0.348 | 1.18 | 1.18 | 1.01 | 1.17 | 1.08 | 0.805 | 0.835 | 0.924 | 0.755 | 0.765 | 0.758 | 0.766 | 0.785 | 0.657 | 0.585 |
| NCI-H322M | 0.581 | 0.562 | 0.555 | 0.499 | 0.475 | 1.04 | 0.816 | 0.677 | 0.887 | 0.707 | 0.612 | 0.599 | 0.54 | 0.564 | 0.575 | 0.808 | 0.864 | 0.62 | 0.707 | 0.532 |
| NCI-H1755 | 0.707 | 0.7 | 0.798 | 0.773 | 0.622 | 0.986 | 1.01 | 0.926 | 0.998 | 0.973 | 1.09 | 0.98 | 1.02 | 0.935 | 1.07 | 0.472 | 0.413 | 0.422 | 0.351 | 0.454 |
| NCI-H1915 | 0.635 | 0.643 | 0.71 | 0.659 | 0.575 | 1.09 | 1.12 | 1.15 | 1.02 | 1.11 | 0.957 | 0.955 | 1.05 | 0.971 | 0.956 | 0.745 | 0.745 | 0.811 | 0.836 | 0.667 |
